These results are taken from patent US20240058347A1, “DOSAGES FOR HDAC TREATMENT WITH REDUCED SIDE EFFECTS” (VIRACTA THERAPEUTICS, INC., priority 2019, published 2024).

The target of data set [1] is HDAC5 (Homo sapiens, UniProt Q9UQL6). The experiment in a line: in vitro HDAC inhibition assay (fluorescence), HDAC5. The format is biochemical. The procedure: (§1) Briefly, all of the compounds are dissolved in DMSO. A series of dilutions of the compounds were prepared with 10% DMSO in HDAC assay buffer and 5 μl of the dilution was added to a 50 μl reaction so that the final concentration of DMSO is 1% in all of reactions. The compounds were pre-incubated in duplicate at RT for 1 hour in a mixture containing HDAC assay buffer, 5 μg BSA, HDAC enzyme (see Table 7) and a the particular HDACi. After 1 hour, the enzymatic reactions were initiated by the addition of HDAC substrate (BPS Bioscience) to a final concentration of 10 μM or 2 μM. The enzymatic reaction proceeded for 30 minutes at 37° C.
HDAC5, sequence (Q9UQL6 whole entry): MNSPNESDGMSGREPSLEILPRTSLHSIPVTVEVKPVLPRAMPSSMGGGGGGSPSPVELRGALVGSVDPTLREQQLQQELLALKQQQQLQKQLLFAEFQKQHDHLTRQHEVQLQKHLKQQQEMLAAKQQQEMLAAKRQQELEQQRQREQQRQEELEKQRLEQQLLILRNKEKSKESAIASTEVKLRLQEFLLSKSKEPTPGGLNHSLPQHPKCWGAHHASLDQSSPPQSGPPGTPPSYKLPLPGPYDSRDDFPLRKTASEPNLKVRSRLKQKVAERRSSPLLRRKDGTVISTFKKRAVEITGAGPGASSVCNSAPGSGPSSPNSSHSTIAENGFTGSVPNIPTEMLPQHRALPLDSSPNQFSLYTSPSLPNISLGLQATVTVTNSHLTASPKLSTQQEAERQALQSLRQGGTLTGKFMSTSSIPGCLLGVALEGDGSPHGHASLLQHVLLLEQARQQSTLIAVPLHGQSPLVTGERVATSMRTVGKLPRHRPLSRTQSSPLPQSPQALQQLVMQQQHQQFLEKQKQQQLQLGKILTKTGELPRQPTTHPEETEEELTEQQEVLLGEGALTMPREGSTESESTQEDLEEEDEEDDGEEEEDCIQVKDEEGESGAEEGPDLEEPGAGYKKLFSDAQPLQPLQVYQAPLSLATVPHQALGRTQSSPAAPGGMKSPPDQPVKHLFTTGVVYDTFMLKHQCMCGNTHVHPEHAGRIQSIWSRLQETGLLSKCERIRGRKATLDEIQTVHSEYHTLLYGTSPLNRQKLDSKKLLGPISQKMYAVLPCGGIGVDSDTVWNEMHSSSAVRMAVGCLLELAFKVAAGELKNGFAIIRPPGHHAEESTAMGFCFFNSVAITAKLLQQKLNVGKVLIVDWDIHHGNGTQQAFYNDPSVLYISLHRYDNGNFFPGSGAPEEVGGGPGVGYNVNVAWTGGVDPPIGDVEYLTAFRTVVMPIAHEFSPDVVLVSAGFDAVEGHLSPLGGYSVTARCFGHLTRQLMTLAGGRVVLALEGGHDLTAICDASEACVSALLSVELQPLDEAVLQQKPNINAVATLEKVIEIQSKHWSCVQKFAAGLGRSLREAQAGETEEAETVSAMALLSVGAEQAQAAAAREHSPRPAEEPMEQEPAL
(§2) HDAC activity assays were performed in duplicates at each concentration. The fluorescent intensity data were analyzed using the computer software, Graphpad Prism. In the absence of the compound, the fluorescent intensity (Ft) in each data set was defined as 100% activity. In the absence of HDAC, the fluorescent intensity (Fb) in each data set was defined as 0% activity. The percent activity in the presence of each compound was calculated according to the following equation: % activity=(F−Fb)/(Ft−Fb), where F=the fluorescent intensity in the presence of the compound. […]

Data set [2] deals with HDAC9 (Homo sapiens, UniProt Q9UKV0). The data set is described as follows: in vitro HDAC inhibition assay (fluorescence), HDAC9. The format is biochemical. The conditions noted are these: HDAC9. The procedure: as §1, §2
HDAC9, sequence (Q9UKV0 whole entry): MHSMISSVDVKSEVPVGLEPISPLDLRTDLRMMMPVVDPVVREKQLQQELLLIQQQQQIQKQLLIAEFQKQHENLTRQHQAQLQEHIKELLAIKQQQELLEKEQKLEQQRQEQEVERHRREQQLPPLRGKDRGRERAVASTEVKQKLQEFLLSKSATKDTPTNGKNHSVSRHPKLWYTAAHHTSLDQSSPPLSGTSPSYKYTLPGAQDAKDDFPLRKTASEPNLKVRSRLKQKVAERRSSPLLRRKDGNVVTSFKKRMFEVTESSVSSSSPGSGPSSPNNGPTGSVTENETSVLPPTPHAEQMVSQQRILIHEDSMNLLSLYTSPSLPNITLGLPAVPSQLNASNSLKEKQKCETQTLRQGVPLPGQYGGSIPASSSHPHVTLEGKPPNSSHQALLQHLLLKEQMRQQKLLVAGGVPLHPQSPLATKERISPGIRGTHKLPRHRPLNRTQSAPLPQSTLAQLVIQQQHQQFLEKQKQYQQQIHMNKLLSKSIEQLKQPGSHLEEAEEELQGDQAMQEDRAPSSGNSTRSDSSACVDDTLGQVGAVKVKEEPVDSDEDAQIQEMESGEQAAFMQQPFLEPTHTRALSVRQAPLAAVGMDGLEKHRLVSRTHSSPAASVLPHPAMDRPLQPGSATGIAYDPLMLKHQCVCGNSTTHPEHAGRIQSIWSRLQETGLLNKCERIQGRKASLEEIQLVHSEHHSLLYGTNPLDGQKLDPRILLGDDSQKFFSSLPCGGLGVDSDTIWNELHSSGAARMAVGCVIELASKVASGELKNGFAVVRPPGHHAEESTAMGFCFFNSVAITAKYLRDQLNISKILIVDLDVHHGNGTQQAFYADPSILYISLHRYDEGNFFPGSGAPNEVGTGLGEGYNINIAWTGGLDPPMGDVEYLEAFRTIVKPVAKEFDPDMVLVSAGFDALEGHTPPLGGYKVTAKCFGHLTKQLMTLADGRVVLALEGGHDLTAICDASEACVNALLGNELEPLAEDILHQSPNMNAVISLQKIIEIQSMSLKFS
The target of data set [3] is HDAC3/NCOR2 (Homo sapiens, UniProt O15379). The data set is described as follows: biochemical. The procedure: as §1
HDAC3/NCOR2, sequence (O15379 whole entry): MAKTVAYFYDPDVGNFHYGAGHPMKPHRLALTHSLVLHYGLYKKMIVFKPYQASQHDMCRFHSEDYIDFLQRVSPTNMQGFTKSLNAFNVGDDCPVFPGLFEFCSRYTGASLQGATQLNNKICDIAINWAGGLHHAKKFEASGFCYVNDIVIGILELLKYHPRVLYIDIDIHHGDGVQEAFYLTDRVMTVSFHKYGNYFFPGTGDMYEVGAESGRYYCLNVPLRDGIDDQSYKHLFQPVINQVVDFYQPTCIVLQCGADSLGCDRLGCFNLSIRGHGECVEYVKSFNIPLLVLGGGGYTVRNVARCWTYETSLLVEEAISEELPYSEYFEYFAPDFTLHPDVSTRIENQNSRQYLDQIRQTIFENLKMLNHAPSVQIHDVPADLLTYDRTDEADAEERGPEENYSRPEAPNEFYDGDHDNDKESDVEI
HDAC3/NCOR2, sequence (Q9Y618 395-489 partner limits assumed): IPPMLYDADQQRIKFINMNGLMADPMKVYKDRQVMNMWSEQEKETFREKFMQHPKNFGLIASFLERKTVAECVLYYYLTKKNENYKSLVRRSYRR
(§3) HDAC activity assays were performed in duplicates at each concentration. The fluorescent intensity data were analyzed using the computer software, Graphpad Prism. In the absence of the compound, the fluorescent intensity (Ft) in each data set was defined as 100% activity. In the absence of HDAC, the fluorescent intensity (Fb) in each data set was defined as 0% activity. The percent activity in the presence of each compound was calculated according to the following equation: % activity=(F−Fb)/(Ft−Fb), where F=the fluorescent intensity in the presence of the compound.
(§4) The values of % activity versus a series of compound concentrations were then plotted using non-linear regression analysis of Sigmoidal dose-response curve generated with the equation Y=B+(T−B)/1+10^((Log C50−X)×Hill Slope), where Y=percent activity, B=minimum percent activity, T=maximum percent activity, X=logarithm of compound and Hill Slope=slope factor or Hill coefficient. The IC50 value was determined by the concentration causing a half-maximal percent activity.

Data set [4] addresses T1, HDAC8 (Homo sapiens, UniProt Q9BY41).
T1 sequence (Q9BY41 1-377): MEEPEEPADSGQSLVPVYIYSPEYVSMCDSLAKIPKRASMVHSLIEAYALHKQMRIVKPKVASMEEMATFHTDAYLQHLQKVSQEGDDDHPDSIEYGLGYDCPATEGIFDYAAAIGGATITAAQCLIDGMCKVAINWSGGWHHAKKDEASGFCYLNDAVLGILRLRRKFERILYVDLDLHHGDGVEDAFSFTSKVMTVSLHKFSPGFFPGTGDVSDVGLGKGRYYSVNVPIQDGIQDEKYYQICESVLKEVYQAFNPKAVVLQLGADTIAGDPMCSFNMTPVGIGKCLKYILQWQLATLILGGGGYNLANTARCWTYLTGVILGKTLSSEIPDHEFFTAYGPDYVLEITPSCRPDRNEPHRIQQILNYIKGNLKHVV
The data set is described as follows: biochemical. The procedure:
as §1, §3, §4

Data set [5] has as its target HDAC2 (Homo sapiens, UniProt Q92769). The experiment in a line: biochemical. The procedure:
as §1, §3, §4

The target of data set [6] is T2, HDAC6 (Homo sapiens, UniProt Q9UBN7).
T2 sequence (Q9UBN7 1-1215): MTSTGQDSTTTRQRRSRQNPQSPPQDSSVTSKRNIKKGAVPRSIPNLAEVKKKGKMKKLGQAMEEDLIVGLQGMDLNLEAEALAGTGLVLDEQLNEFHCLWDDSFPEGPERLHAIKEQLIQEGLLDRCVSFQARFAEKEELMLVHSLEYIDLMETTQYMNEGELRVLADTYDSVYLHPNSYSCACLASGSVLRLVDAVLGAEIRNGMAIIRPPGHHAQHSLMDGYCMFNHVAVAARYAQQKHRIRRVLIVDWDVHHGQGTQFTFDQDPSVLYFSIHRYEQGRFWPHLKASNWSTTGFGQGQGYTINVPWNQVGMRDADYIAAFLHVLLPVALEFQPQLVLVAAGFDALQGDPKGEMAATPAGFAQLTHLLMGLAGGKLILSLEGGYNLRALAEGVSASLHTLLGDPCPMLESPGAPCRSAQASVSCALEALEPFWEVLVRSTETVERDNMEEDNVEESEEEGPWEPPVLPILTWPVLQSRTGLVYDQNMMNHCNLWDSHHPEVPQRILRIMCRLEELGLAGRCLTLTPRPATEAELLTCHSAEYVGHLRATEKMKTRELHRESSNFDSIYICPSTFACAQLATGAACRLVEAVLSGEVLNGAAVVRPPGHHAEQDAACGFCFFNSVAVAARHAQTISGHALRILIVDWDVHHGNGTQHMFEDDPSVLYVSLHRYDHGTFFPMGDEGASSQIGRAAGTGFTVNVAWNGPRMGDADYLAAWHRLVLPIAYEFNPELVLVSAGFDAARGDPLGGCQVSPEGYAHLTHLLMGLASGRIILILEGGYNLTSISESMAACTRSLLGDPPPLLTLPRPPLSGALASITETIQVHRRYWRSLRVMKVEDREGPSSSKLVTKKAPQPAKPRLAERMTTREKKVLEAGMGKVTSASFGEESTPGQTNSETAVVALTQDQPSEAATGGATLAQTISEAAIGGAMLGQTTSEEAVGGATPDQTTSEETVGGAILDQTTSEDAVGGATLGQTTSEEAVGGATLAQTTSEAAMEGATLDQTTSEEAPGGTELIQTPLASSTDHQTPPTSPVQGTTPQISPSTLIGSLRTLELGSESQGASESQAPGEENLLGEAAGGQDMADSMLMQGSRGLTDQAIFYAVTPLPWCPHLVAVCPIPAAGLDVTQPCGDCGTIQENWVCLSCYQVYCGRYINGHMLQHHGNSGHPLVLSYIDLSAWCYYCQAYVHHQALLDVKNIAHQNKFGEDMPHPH
The experiment in a line: biochemical. The procedure:
as §1, §3, §4

In data set [7] the test system is P3HR1 Burkitt's lymphoma cells. The experiment in a line: Cell death (7AAD staining) of EBV infected cell line, Nstat 3 days then ganciclovir 3 days. As to conditions: FIG. 4. The data set is classed as cell-based. The procedure:
All test conditions were run in triplicate. Cell death was measured by 7AAD staining.

The target of data set [8] is HDAC4 (Homo sapiens, UniProt P56524). The experiment in a line: in vitro HDAC inhibition assay (fluorescence), HDAC4. As to conditions: HDAC4. The format is biochemical. The procedure: as §1, §2
HDAC4, sequence (P56524 whole entry): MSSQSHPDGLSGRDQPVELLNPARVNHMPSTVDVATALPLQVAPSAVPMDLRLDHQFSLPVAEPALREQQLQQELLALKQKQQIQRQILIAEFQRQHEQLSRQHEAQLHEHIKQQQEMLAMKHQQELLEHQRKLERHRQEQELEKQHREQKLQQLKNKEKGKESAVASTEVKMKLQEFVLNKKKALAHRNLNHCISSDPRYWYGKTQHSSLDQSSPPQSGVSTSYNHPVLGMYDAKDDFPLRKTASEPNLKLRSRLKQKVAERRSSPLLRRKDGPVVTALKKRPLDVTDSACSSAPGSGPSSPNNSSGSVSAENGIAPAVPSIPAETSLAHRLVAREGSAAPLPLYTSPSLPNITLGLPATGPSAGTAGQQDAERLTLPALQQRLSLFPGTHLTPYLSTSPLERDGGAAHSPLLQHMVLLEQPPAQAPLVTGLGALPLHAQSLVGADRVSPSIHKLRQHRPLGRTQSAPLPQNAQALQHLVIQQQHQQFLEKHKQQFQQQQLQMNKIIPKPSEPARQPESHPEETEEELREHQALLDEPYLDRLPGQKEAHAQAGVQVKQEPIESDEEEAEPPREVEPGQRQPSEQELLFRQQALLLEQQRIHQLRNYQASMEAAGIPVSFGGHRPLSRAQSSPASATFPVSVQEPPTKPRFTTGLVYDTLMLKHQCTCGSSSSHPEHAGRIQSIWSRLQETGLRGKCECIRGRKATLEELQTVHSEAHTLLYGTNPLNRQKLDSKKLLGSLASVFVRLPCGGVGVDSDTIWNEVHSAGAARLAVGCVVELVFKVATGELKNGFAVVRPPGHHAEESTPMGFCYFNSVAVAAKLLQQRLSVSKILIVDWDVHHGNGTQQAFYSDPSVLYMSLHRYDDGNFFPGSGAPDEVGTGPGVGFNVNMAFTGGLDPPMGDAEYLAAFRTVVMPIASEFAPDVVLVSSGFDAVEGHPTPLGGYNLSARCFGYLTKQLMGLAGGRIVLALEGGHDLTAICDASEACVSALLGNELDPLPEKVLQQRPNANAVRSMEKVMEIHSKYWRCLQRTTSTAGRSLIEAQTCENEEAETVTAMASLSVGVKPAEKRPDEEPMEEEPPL

HDAC2, sequence (Q92769 whole entry): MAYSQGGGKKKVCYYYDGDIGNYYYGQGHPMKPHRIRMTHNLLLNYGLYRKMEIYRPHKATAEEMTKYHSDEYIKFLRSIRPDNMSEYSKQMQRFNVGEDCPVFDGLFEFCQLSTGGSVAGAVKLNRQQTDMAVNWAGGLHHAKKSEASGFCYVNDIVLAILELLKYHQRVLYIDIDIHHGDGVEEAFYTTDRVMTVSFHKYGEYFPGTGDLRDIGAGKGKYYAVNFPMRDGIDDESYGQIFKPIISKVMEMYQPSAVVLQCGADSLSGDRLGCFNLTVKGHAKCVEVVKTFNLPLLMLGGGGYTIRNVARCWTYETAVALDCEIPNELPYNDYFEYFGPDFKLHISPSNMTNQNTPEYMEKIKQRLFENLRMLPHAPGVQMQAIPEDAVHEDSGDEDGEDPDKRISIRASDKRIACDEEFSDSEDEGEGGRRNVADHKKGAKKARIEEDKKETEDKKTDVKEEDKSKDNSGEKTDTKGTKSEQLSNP

The term IC50 denotes the midpoint of a concentration-inhibition curve. On to `O=C(NO)c1cnc(N2CC3C(C2)C3NCc2ccc3cc(F)ccc3n2)nc1` (stereo not drawn) [Nstat, 2-(6-{[(6-Fluoroquinolin-2-yl)methyl]amino}-3-azabicyclo[3.1.0]hex-3-yl)-N-hydroxypyrimidine-5-carboxamide], for which the half-inhibitory concentration (IC50) in data set [1] was 390 nM; in data set [2] it was 440 nM; in data set [3], 12 nM; in data set [4], 860 nM; in data set [5], 12 nM; in data set [6], 450 nM. Half-maximal inhibition in data set [8] (IC50) was put at 1000 nM. Further, the “increase of cytotoxic activity when combined with Ganciclovir” value in data set [7] (Nstat 3 days, wash, ganciclovir 3 days) was approximately 40%. The “increased cytotoxicity with ganciclovir after Nstat removal” value in data set [7] (after 3 days of washout) is on record as “seen even after Nstat removal”.
